Data as given in ChEMBL document CHEMBL3885881, “DrugMatrix”.

Organism: Rattus norvegicus
Test: DrugMatrix - Regimen: Daily Repeat
Type: toxicity, organism-based, Sprague-Dawley
Design: regimen Daily Repeat, gender Male, age 6-8 weeks
Settings: in vivo, po, route oral GAVAGE, vehicle .5 % CMC; for ABSOLUTE BASOPHIL / ABSOLUTE EOSINOPHIL / ABSOLUTE LYMPHOCYTE / ABSOLUTE MONOCYTE / ABSOLUTE SEGMENTED NEUTROPHIL / BASOPHIL / EOSINOPHIL / ERYTHROCYTE COUNT / HEMATOCRIT / HEMOGLOBIN / LEUKOCYTE COUNT / LYMPHOCYTE / MEAN CORPUSCULAR HEMOGLOBIN / MEAN CORPUSCULAR HEMOGLOBIN CONCENTRATION / MEAN CORPUSCULAR VOLUME / MONOCYTE / NEUTROPHIL / NUCLEATED RED BLOOD CELLS / PLATELET COUNT: tissue Blood; for ALANINE AMINOTRANSFERASE / ALBUMIN / ALKALINE PHOSPHATASE / ASPARTATE AMINOTRANSFERASE / BLOOD UREA NITROGEN / CARBON DIOXIDE / CHLORIDE / CHOLESTEROL / CREATINE PHOSPHOKINASE / CREATININE / GLUCOSE / LACTATE DEHYDROGENASE / LIPASE / PHOSPHORUS / POTASSIUM / SODIUM / TOTAL BILIRUBIN / TOTAL PROTEIN / URIC ACID: tissue Plasma
[1] = 50 mg/kg, 72 h, dose level Low, time 3 day
[2] = 50 mg/kg, 120 h, dose level Low, time 5 day
[3] = 350 mg/kg, 72 h, dose level High, time 3 day
[4] = 350 mg/kg, 120 h, dose level High, time 5 day

Cc1cccc(C)c1OCC(C)N (configuration not stated) [MEXILETINE]
ABSOLUTE BASOPHIL [1]: 0 CELLS/uL | ABSOLUTE EOSINOPHIL [1]: 76.67 CELLS/uL | ABSOLUTE LYMPHOCYTE [1]: 11625.67 CELLS/uL | ABSOLUTE MONOCYTE [1]: 164.33 CELLS/uL | ABSOLUTE SEGMENTED NEUTROPHIL [1]: 733.33 CELLS/uL | BASOPHIL [1]: 0% | EOSINOPHIL [1]: 0.67% | ERYTHROCYTE COUNT [1]: 5.83 x10E6/uL | HEMATOCRIT [1]: 36.67% | HEMOGLOBIN [1]: 13.2 G/DL | LEUKOCYTE COUNT [1]: 12.6 x10E3/uL | LYMPHOCYTE [1]: 92.33% | MEAN CORPUSCULAR HEMOGLOBIN [1]: 22.63 pg | MEAN CORPUSCULAR HEMOGLOBIN CONCENTRATION [1]: 36 G/DL | MEAN CORPUSCULAR VOLUME [1]: 62.9 fL | MONOCYTE [1]: 1.33% | NEUTROPHIL [1]: 5.67% | NUCLEATED RED BLOOD CELLS [1]: 0 /100WBC | PLATELET COUNT [1]: 1579.67 x10E3/uL | ALANINE AMINOTRANSFERASE [1]: 39.67 u/L | ALBUMIN [1]: 4.47 G/DL | ALKALINE PHOSPHATASE [1]: 347.33 u/L | ASPARTATE AMINOTRANSFERASE [1]: 70.33 u/L | BLOOD UREA NITROGEN [1]: 15 mg/dL | CARBON DIOXIDE [1]: 26.67 mmol/L | CHLORIDE [1]: 103.33 MEQ/L | CHOLESTEROL [1]: 73 mg/dL | CREATINE PHOSPHOKINASE [1]: 249.33 u/L | CREATININE [1]: 0.18 mg/dL | GLUCOSE [1]: 168.67 mg/dL | LACTATE DEHYDROGENASE [1]: 90 u/L | LIPASE [1]: 9 u/L | PHOSPHORUS [1]: 13.23 mg/dL | POTASSIUM [1]: 6.67 MEQ/L | SODIUM [1]: 144.43 MEQ/L | TOTAL BILIRUBIN [1]: 0.2 mg/dL | TOTAL PROTEIN [1]: 6 G/DL | URIC ACID [1]: 2.37 mg/dL | ABSOLUTE BASOPHIL [2]: 0 CELLS/uL | ABSOLUTE EOSINOPHIL [2]: 311.67 CELLS/uL | ABSOLUTE LYMPHOCYTE [2]: 17277 CELLS/uL | ABSOLUTE MONOCYTE [2]: 358.33 CELLS/uL | ABSOLUTE SEGMENTED NEUTROPHIL [2]: 1686.33 CELLS/uL | BASOPHIL [2]: 0% | EOSINOPHIL [2]: 1.67% | ERYTHROCYTE COUNT [2]: 5.61 x10E6/uL | HEMATOCRIT [2]: 35.37% | HEMOGLOBIN [2]: 13.43 G/DL | LEUKOCYTE COUNT [2]: 19.63 x10E3/uL | LYMPHOCYTE [2]: 88% | MEAN CORPUSCULAR HEMOGLOBIN [2]: 23.97 pg | MEAN CORPUSCULAR HEMOGLOBIN CONCENTRATION [2]: 38 G/DL | MEAN CORPUSCULAR VOLUME [2]: 63.13 fL | MONOCYTE [2]: 1.67% | NEUTROPHIL [2]: 8.67% | NUCLEATED RED BLOOD CELLS [2]: 0 /100WBC | PLATELET COUNT [2]: 1342.33 x10E3/uL | ALANINE AMINOTRANSFERASE [2]: 52 u/L | ALBUMIN [2]: 4.23 G/DL | ALKALINE PHOSPHATASE [2]: 414.33 u/L | ASPARTATE AMINOTRANSFERASE [2]: 89 u/L | BLOOD UREA NITROGEN [2]: 18.67 mg/dL | CARBON DIOXIDE [2]: 24.33 mmol/L | CHLORIDE [2]: 106.67 MEQ/L | CHOLESTEROL [2]: 62 mg/dL | CREATINE PHOSPHOKINASE [2]: 325.67 u/L | CREATININE [2]: 0.19 mg/dL | GLUCOSE [2]: 163.67 mg/dL | LACTATE DEHYDROGENASE [2]: 469 u/L | LIPASE [2]: 8.67 u/L | PHOSPHORUS [2]: 12.77 mg/dL | POTASSIUM [2]: 6.24 MEQ/L | SODIUM [2]: 144.53 MEQ/L | TOTAL BILIRUBIN [2]: 0.3 mg/dL | TOTAL PROTEIN [2]: 6.4 G/DL | URIC ACID [2]: 1.83 mg/dL | ABSOLUTE BASOPHIL [3]: 0 CELLS/uL | ABSOLUTE EOSINOPHIL [3]: 77.33 CELLS/uL | ABSOLUTE LYMPHOCYTE [3]: 8910.33 CELLS/uL | ABSOLUTE MONOCYTE [3]: 236 CELLS/uL | ABSOLUTE SEGMENTED NEUTROPHIL [3]: 643 CELLS/uL | BASOPHIL [3]: 0% | EOSINOPHIL [3]: 0.67% | ERYTHROCYTE COUNT [3]: 6.04 x10E6/uL | HEMATOCRIT [3]: 38.2% | HEMOGLOBIN [3]: 14.37 G/DL | LEUKOCYTE COUNT [3]: 9.87 x10E3/uL | LYMPHOCYTE [3]: 90.33% | MEAN CORPUSCULAR HEMOGLOBIN [3]: 23.87 pg | MEAN CORPUSCULAR HEMOGLOBIN CONCENTRATION [3]: 37.63 G/DL | MEAN CORPUSCULAR VOLUME [3]: 63.37 fL | MONOCYTE [3]: 2.33% | NEUTROPHIL [3]: 6.67% | NUCLEATED RED BLOOD CELLS [3]: 0.33 /100WBC | PLATELET COUNT [3]: 1205.33 x10E3/uL | ALANINE AMINOTRANSFERASE [3]: 60.67 u/L | ALBUMIN [3]: 5.13 G/DL | ALKALINE PHOSPHATASE [3]: 464.67 u/L | ASPARTATE AMINOTRANSFERASE [3]: 73.67 u/L | BLOOD UREA NITROGEN [3]: 13 mg/dL | CARBON DIOXIDE [3]: 27.33 mmol/L | CHLORIDE [3]: 102 MEQ/L | CHOLESTEROL [3]: 86 mg/dL | CREATINE PHOSPHOKINASE [3]: 277.67 u/L | CREATININE [3]: 0.21 mg/dL | GLUCOSE [3]: 139.67 mg/dL | LACTATE DEHYDROGENASE [3]: 118 u/L | LIPASE [3]: 9 u/L | PHOSPHORUS [3]: 10.8 mg/dL | POTASSIUM [3]: 5.61 MEQ/L | SODIUM [3]: 145.8 MEQ/L | TOTAL BILIRUBIN [3]: 0.23 mg/dL | TOTAL PROTEIN [3]: 7.07 G/DL | URIC ACID [3]: 0.77 mg/dL | ABSOLUTE BASOPHIL [4]: 0 CELLS/uL | ABSOLUTE EOSINOPHIL [4]: 203 CELLS/uL | ABSOLUTE LYMPHOCYTE [4]: 12514 CELLS/uL | ABSOLUTE MONOCYTE [4]: 136 CELLS/uL | ABSOLUTE SEGMENTED NEUTROPHIL [4]: 747 CELLS/uL | BASOPHIL [4]: 0% | EOSINOPHIL [4]: 1.5% | ERYTHROCYTE COUNT [4]: 6.13 x10E6/uL | HEMATOCRIT [4]: 38% | HEMOGLOBIN [4]: 14.05 G/DL | LEUKOCYTE COUNT [4]: 13.6 x10E3/uL | LYMPHOCYTE [4]: 92% | MEAN CORPUSCULAR HEMOGLOBIN [4]: 22.9 pg | MEAN CORPUSCULAR HEMOGLOBIN CONCENTRATION [4]: 37 G/DL | MEAN CORPUSCULAR VOLUME [4]: 62.05 fL | MONOCYTE [4]: 1% | NEUTROPHIL [4]: 5.5% | NUCLEATED RED BLOOD CELLS [4]: 0 /100WBC | PLATELET COUNT [4]: 1422.5 x10E3/uL | ALANINE AMINOTRANSFERASE [4]: 55 u/L | ALBUMIN [4]: 4.35 G/DL | ALKALINE PHOSPHATASE [4]: 464 u/L | ASPARTATE AMINOTRANSFERASE [4]: 93.5 u/L | BLOOD UREA NITROGEN [4]: 15 mg/dL | CARBON DIOXIDE [4]: 24 mmol/L | CHLORIDE [4]: 105 MEQ/L | CHOLESTEROL [4]: 59 mg/dL | CREATINE PHOSPHOKINASE [4]: 283.5 u/L | CREATININE [4]: 0.22 mg/dL | GLUCOSE [4]: 182.5 mg/dL | LACTATE DEHYDROGENASE [4]: 152 u/L | LIPASE [4]: 8.5 u/L | PHOSPHORUS [4]: 12.7 mg/dL | POTASSIUM [4]: 5.83 MEQ/L | SODIUM [4]: 145.35 MEQ/L | TOTAL BILIRUBIN [4]: 0.2 mg/dL | TOTAL PROTEIN [4]: 6.4 G/DL | URIC ACID [4]: 2 mg/dL
